The values below come from patent US12466821B2 (Novartis AG, priority 2018, dated 2025).

The subject of one experiment is VZV Ellen strain. Put plainly: VZV qPCR assay (cellular herpesvirus replication). The format is cell-based. To be noted: Human alphaherpesvirus 3, MRC5, 48 h; MRC-5 cells, qPCR after two days; n>3, value (+/- spread). How it is done:
For all viral assays, 10 mM DMSO stock compound solutions were serially diluted in DMSO at 3.16 fold dilutions in 96-well clear round bottom plates. Compounds were then diluted in assay media at 1:20 and subsequently 10 μL of these dilutions were added to cells for final compound concentrations ranging either from 0.0159 μM to 50 μM in 0.5% DMSO/assay media, or from 0.00318 to 10 μM in 0.5% DMSO/assay media.
VZV qPCR assay: The assay uses co-infection with VZV Ellen strain-infected MRC-5 cells (ATCC cat #VR-1367). Viral replication in the presence or absence of compounds was measured by qPCR according to the following procedure: 12,000 uninfected MRC-5 cells were mixed with VZV-infected MRC-5 cells at a ratio of 1 to 10 infected to uninfected cells, in 96-well white-wall clear bottom plates in 90 μL/well of assay media: 4% FBS in EMEM (ATCC cat #30-2003). […] The chosen ratio of infected to uninfected cells gave approximately 3% VZV-positive cells at 6 hours post co-culturing, as detected by immunofluorescent staining of VZV Immediate Early 62 gene. […]
qPCR reactions were carried out in a total reaction volume of 20 μL, using the QuantiFast® Multiplex PCR kit (Qiagen cat #204656). […]
Relative quantification was calculated with the ΔΔCT Method, and then converted into percent inhibitions. […] EC50 values were calculated using XLFit Dose Response One Site Model 205.
(Quantitative PCR measures a nucleic acid by following its amplification.)

Experiment [1] addresses human CMV DNA polymerase UL54 (Human cytomegalovirus (strain AD169) (HHV-5) (Human herpesvirus 5), UniProt P08546). Put plainly: CMV polymerase biochemical assay (molecular beacon-based). Put shortly: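 Readout was beacon fluorescence (ex 480, em 535 nm), used to derive IC50. Each dNTP was at 1.25 uM, with 200 nM primer and 100 nM beacon, after a 30-min RT inhibitor preincubation. Enzyme was 625 pM for HSV UL30 (20 min RT reaction) or 100 pM for CMV UL54 (60 min RT), both sf9-expressed MBP fusions, in pH 7.5 Tris buffer with MgCl2.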

One may read the EC50 as the concentration needed to bring the measured effect to its halfway point. Higher therefore signals weaker potency. By IC50 is commonly meant the concentration needed to halve the response being measured. Consider `N#Cc1ccc(CNC(=O)c2ccc3n(c2=O)CCN(CC2(S(=O)(=O)C4CC4)CC2)C3=O)cc1` [Example 1, N-(4-cyanobenzyl)-2-((1-(cyclopropylsulfonyl)cyclopropyl)methyl)-1,6-dioxo-2,3,4,6-tetrahydro-1H-pyrido[1,2-a]pyrazine-7-carboxamide], for which a half-maximal response in the experiment on VZV Ellen strain (EC50) required 20 nM. In experiment [1], this compound yielded an IC50 of 0.8 nM.
